Results on 3 molecules are retold here after patent publication US20250163484A1, “Methods for Incorporating Azido Groups in Bacterial Capsular Polysaccharides” (PFIZER INC., priority 2022, published 2025).

Data set [1] relates to S. pneumoniae T14. The data set can be described thus: Growth of S. pneumoniae T14 in fermentation with azido sugar (OD600). The data set is classed as cell-based, Streptococcus pneumoniae serotype 14.
The subject of data set [2] is S. pneumoniae T14. Type of data set: cell-based, Streptococcus pneumoniae serotype 14. The conditions noted are these: production medium + Galactose (30 g/L). As to the method: (§1) FIGS. 1A-1D. Screen for azido sugar incorporation into S. pneumoniae T14 capsule polysaccharide. […] Bacteria were grown until the ΔOD600≥0 for >30 minutes, then lysed with 0.1% NLS for 30 minutes. Growth was measured offline using a spectrophotometer blanked with PBS at 600 nm. (FIG. 1A) azido incorporation into polysaccharide was then quantified via fluorescent labeling (FL) with normalization to refractive index (RI). MaxOD and End Of Fermentation time (EOF) are provided in (FIG. 1B) and (FIG. 1C), respectively. Polysaccharide was extracted using EtOH and CaCl2 and analyzed via SEC-RI for (FIG. 1D) polysaccharide titer. n=1-4, error bars=+/−StDev.
FIGS. 2A-2D Impact of 2AzGlcAc4 concentration on S. pneumoniae T14 growth and poly production in production medium supplemented with Galactose (30 g/L). […] (FIG. 2A) Growth was measured offline using a spectrophotometer blanked with PBS at 600 nm. At the end of fermentation, cultures were lysed with 0.1% NLS for 30 min. and polysaccharide was extracted via EtOH/CaCl2) precipitation. Polysaccharide titer (FIG. 2B) and size (FIG. 2C) were measured via SEC-RI and SEC-MALS, respectively. (FIG. 2D) azido incorporation was then quantified via fluorescent labeling (FL) and normalized to the refractive index (RI). n=3, error bars=+/−StDev.
FIGS. 3A-3E Impact of 2AzGlc concentration on S. pneumoniae T14 growth and polysaccharide production in production medium supplemented with Galactose (30 g/L). […] (FIG. 3A) Growth was measured offline using a spectrophotometer blanked with PBS at 600 nm. Cultures were lysed with 0.1% NLS for 30 min. and polysaccharide was extracted via EtOH/CaCl2) precipitation. Polysaccharide (FIG. 3B/FIG. 3C) titer and (FIG. 3D) size were measured via SEC-RI and SEC-MALS, respectively. (FIG. 3E) azido incorporation was then quantified via fluorescent labeling (FL) and normalized to the refractive index (RI). n=3, error bars=+/−StDev.
We tested the impact of 2AzGlc concentration on S. pneumoniae T14 growth, polysaccharide production, and azido incorporation by growing the bacteria in production media (supplemented with Glucose (dextrose, 30 g/L)) with various concentrations of 2AzGlc (0, 1, 5, 10, 20, 40, and 60 mM).

Data set [3] concerns S. pneumoniae T14 capsule polysaccharide. The data set is classed as cell-based, Streptococcus pneumoniae serotype 14. The conditions noted are these: 2AzGlcAc4 2.5-10 mM, production medium + Galactose (30 g/L), DMSO 2%. As to the method: as §1
A SEC fluorescence and Refractive index assay (SEC-FL/RI) was used for azide measurement to confirm the incorporation of azide modification.
Click-It Cell Reaction Buffer kit and Alexa Fluor 488 Alkyne were purchased from Invitrogen.
The initial procedure when running the SEC-FL/RI was to prepare the sample to a target concentration of 0.01 mg/m by mixing a pre-diluted polysaccharide to the final target concentration with the Click Reaction mixture. The reaction mixture consisted of 2.67 mM CuSO4, 2.67 mg/mL cell additive reagent, and 20 uM Alexa Fluor Alkyne. This was mixed with the sample at a 3:1 ratio of reaction mixture to sample and incubated in the absence of light. Reactions were transferred to HPLC vials and ran on the SEC-FL/RI HPLC setup. The RI detector (RID) allowed for detection of the polysaccharide while the Fluorescence Detector (FLD) was used to determine the level of fluor incorporated into the polysaccharide sample. The ratio of the two peak areas gave a measurement for the amount of azide incorporated to the polysaccharide.
Later, in addition to the incubation of the sample for thirty minutes, a buffer exchange step was added that washed out the unreacted fluor as well as the reaction matrix reagents in order to improve the baselines of the FLD and RID during the HPLC run. This added greater resolution of the peak associated with the azide functionalized polysaccharide. The assay was useful for relative quantitation of azide incorporation into the polysaccharide but could not quantify an exact numerical concentration. To improve this aspect work was undertaken to use a polysaccharide with known levels of azido functionalization to make a standard curve that varied the % Azido while keeping the polysaccharide mass the same. This was done by mixing the known azido modified poly (polysaccharide) with specific amounts of native (unmodified) polysaccharide. A strong linear fit for the generated standard curve was seen.
The values for percent azide were able to be converted to a μM azide per mM polysaccharide by converting from % azide using the constant polysaccharide concentration.

A short description of data set [4]: Solubility of azido sugar in production medium. The conditions noted are these: production medium supplemented with galactose (30 g/L), aqueous buffer; read-out: limit of solubility. The data set is classed as physicochemical.

For the molecule `CC(=O)OC[C@H]1OC(O)[C@H](N=[N+]=[N-])[C@@H](OC(C)=O)[C@@H]1O` (stereo partly drawn) [2AzGlcAc2, 3,6-Di-O-acetyl-2-azido-2-deoxy-D-glucopyranose], in data set [1] (azido sugar 20 mM without DMSO, production medium + Galactose (30 g/L)), the growth result is “strongly inhibited”. Besides, the polysaccharide production entry in data set [2] (azido sugar 20 mM without DMSO) is listed as “strongly inhibited”.

Take `CC(=O)OC[C@H]1OC(OC(C)=O)[C@H](N=[N+]=[N-])[C@@H](OC(C)=O)[C@@H]1OC(C)=O` (stereo partly drawn) [2AzGlcAc4, 1,3,4,6-Tetra-O-acetyl-2-azido-2-deoxy-D-glucopyranose]: in data set [1] (2AzGlcAc4 2.5, 5, 7.5, 10 mM, production medium + Galactose (30 g/L), DMSO 2%), the impact on growth result is reported as “no impact”. The “FL/RI with increasing concentrations” value in data set [3] is “did not cause an increase”. Also, the polysaccharide titer result in data set [2] (2AzGlcAc4 2.5, 5, 10 mM (not 7.5 mM), DMSO 2%) is recorded as “statistically significant reduction”. Also, the solubility in data set [4] was at most 1000 µM.

Regarding `[N-]=[N+]=N[C@H]1[C@H](O)[C@@H](CO)OC(O)[C@@H]1O` (stereo partly drawn) [3AzGlc, 3-azido-3-deoxy-D-glucopyranose], in data set [1] (screen, azido sugar 1 mM, only in production medium + Galactose), the “End Of Fermentation (EOF) time” value is listed as “elongated”.

For orientation: solubility means the dissolved amount per volume that the medium holds.
